# In paper PMC13086964, “USP7 deubiquitinase stabilizes FAN1 to support DNA crosslink repair and suppress CAG repeat expansion” (Nature Communications, 2026):
# Where a SMILES comes first, the peptide text is derived from it. The star is where a group is joined. Cbz = O=C(OCc1ccccc1)*
# How the values were obtained:
# [1] = test system: GFP-FAN1 protein level; assay: immunoblot of GFP-FAN1 protein levels, U2OS eGFP-FAN1 cells; format: cell-based, human; conditions: USP7-depleted U2OS eGFP-FAN1 cells, MG-132 10 μM for 6 h
# Protocol: (§1) Fig. 3 USP7 deubiquitinates FAN1 controlling its protein levels. A RPE-1 parental and p53 KO cell lines were transfected with either non-targeting (Ctrl) or USP7 siRNA oligos. 48 h later, whole-cell lysates were analysed by immunoblotting. B Doxycycline-inducible U2OS^eGFP-FAN1 cells were transfected with either non-targeting (Ctrl) or USP7 siRNA oligos. 24 h later, GFP-FAN1 expression was induced with Dox (100 ng/ml) for 24 h and whole-cell lysates were analysed by immunoblotting. C Same cells as in B were induced with Dox (100 ng/ml). 24 h later, cells were either mock-treated with DMSO (–) or treated (+) with either FT671 or GNE-6640 (10 μM) for 24 h and whole-cell lysates were analysed by immunoblotting. D Same cells as in B were transfected with either non-targeting (Ctrl) or USP7 siRNA oligos. […] 24 h post induction, cells were either mock-treated (−) or treated (+) with MG-132 (10 μM) for 6 h and whole-cell lysates were analysed by immunoblotting. […] 24 h post induction, whole-cell lysates were analysed by immunoblotting. […] Inputs and recovered protein complexes were analysed by immunoblotting. […] Inputs and recovered protein complexes were analysed by immunoblotting. […] In (A–E), relative FAN1 protein levels were determined by quantification of FAN1 band intensity (normalized to GAPDH or Lamin B1 loading controls) with the ImageJ software. […]
# [2] = test system: FAN1 protein level; assay: immunoblot of FAN1 protein levels, RPE-1 cells; format: cell-based, human; conditions: USP7-depleted RPE-1 cells, MG-132 10 μM for 6 h
# Protocol: as §1
# [3] = test system: FAN1; assay: pull-down of MBP-His-FAN1 by biotin-tagged USP7 fragments; format: binding, human; conditions: biotin-tagged USP7 fragments 6 µg, MBP-His-FAN1 1 µg
# Protocol: All plasmids were transformed into BL21(DE3)-pBirAcm cells. The cells were grown using a Large-scale EXpression (LEX) bioreactor at 37 °C. Once OD600 reached 0.7, the temperature was reduced to 15 °C. At OD600 0.8-1, expression of biotinylated proteins was induced by adding 25 mg/L biotin and 0.5 mM isopropyl β-d-1-thiogalactopyranoside (IPTG), and growth continued overnight. Cell cultures were harvested by centrifugation at 6500 g, 10 min, 10 °C (JLA8.1000). Pellets were flash-frozen in liquid nitrogen and stored at −80 °C prior to purification. Cell pellets were thawed, diluted with pre-chilled resuspension buffer (20 mM HEPES pH7.4, 500 mM NaCl, 5% (v/v) glycerol, 1 mM TCEP) and supplemented with 3 μg/ml benzonase, 2 mM MgSO4 and 0.8 mM PMSF/benzamidine-HCl. The mixture was homogenized and lysed by sonication, 60 cycles of 5 s pulse followed by 7.5 s rest. Cell lysates were clarified by centrifugation at 40000 g, 1 hr, 10 °C (JLA16.250). […] Protein purity was analysed by SDS-PAGE and identity was confirmed by mass spectrometry. […]
# Transformed clones of chemocompetent BL21 bacteria were picked and inoculated in LB medium supplemented with 50 μg/ml kanamycin, subsequently incubated at 37 °C overnight under agitation at 250 rpm. […] Purity of the protein was assessed by boiling in SDS sample buffer and separating by SDS-PAGE followed by staining using Coomassie Blue. […]
# [4] = test system: GFP-FAN1; assay: cycloheximide chase, FAN1 protein half-life; format: cell-based, human; conditions: U2OS eGFP-FAN1 cells, CHX 100 μg/ml, n = 3
# Protocol: If not stated otherwise, cells were lysed in RIPA buffer (50 mM Tris-HCl, pH 7.5, 150 mM NaCl, 1% IGEPAL, 0.5% sodium deoxycholate, 0.1% SDS) supplemented with phosphatase inhibitors (20 mM NaF and 1 mM Na3VO4) and protease inhibitors (1 mM benzamidine and 0.1 mM PMSF), incubated with Benzonase (Merck) for at least 30 min at 4 °C, and clarified by centrifugation. Proteins were resolved by SDS-PAGE and transferred to nitrocellulose membranes. Immunoblots were performed with the indicated antibodies, and proteins were visualized using the Advansta WesternBright ECL reagent and the Fusion Solo S imaging system. Relative protein levels were determined by quantification of the protein of interest band intensity normalized to the loading control with the ImageJ software. […]
# were determined by quantification of FAN1 band intensity (normalized to α-Tubulin) with the ImageJ software. […] 24 h post induction, cells were either mock-treated or treated with CHX (100 μg/ml) for the indicated time points and whole-cell lysates were analysed by immunoblotting (top panel). Relative GFP-FAN1 protein levels were determined by quantification of GFP-FAN1 band intensity (normalized to GAPDH) with the ImageJ software (bottom panel; siCtrl: black square; siUSP7#1: blue triangle; siUSP7#2: cyan inverted triangle). […] Inputs and recovered protein complexes were analysed by immunoblotting. […]
molecule,measurement,setting,value
CC(C)C[C@@H](C=O)NC(=O)[C@H](CC(C)C)NC(=O)[C@H](CC(C)C)NC(=O)OCc1ccccc1 [MG132] (Cbz-Leu-Leu-Leu-aldehyde),FAN1 levels with proteasome inhibitor,[1],FAN1 levels were restored
same,FAN1 levels with proteasome inhibitor,[2],FAN1 levels were restored
TRAF domain: purified recombinant biotin-tagged USP7 fragment,binding of USP7 domain to FAN1 in vitro,[3],strongest
"C[C@@H]1C[C@@H]([C@H](O)CC2CC(=O)NC(=O)C2)C(=O)[C@@H](C)C1 [CHX, cycloheximide]",FAN1 protein half-life,[4],reduced protein half-life
